≈ marks a conversion by molar mass, not a printed value. Where two headings read alike, the source gives them in different places.
Key:
H. influenzae CIP 102514 = assay: Antibacterial activity (MIC/MBC); format: cell-based, Haemophilus influenzae; details: Haemophilus influenzae, CIP102514, H. influenzae CIP 102514
S. pyogenes CIP 56.41T = assay: Antibacterial activity (MIC/MBC); format: cell-based, Streptococcus pyogenes; details: Streptococcus pyogenes, CIP56, S. pyogenes CIP 56.41T
M. catarrhalis CIP73.21T = assay: Antibacterial activity (MIC/MBC); format: cell-based; details: Moraxella catarrhalis
[1] = test system: S. pneumoniae PSSP CIP 6.92; assay: Antibacterial activity (MIC/MBC); format: cell-based; details: Streptococcus pneumoniae, CIP6
[2] = test system: two strains of penicillin-resistant Streptococcus pneumoniae PRSP (CIP 104471 and a clinical isolate); assay: Antibacterial activity (MIC/MBC), summary in text; format: cell-based; details: S. pneumoniae PRSP (CIP 104471 and a clinical isolate)
[3] = test system: E. faecalis VRE CIP 104676; assay: Antibacterial activity (MIC/MBC); format: cell-based, Enterococcus faecalis; details: Enterococcus faecalis, E. faecalis VRE CIP 104676
[4] = test system: Staphylococcus aureus MSSA 53.154; assay: Murine experimental septicaemia, in vivo efficacy; set-up: species or system mice; details: sc, mice, subcutaneously at 1 and 6 h post infection, survival on day 9, hybrid molecules formulated in water as their sodium salt, read-out: ED50
[5] = test system: S. pneumoniae PRSP clinical isolate; assay: Antibacterial activity (MIC/MBC); format: cell-based, Streptococcus pneumoniae; details: Streptococcus pneumoniae; for MIC: PRSP
[6] = test system: S. pneumoniae PRSP CIP 104471; assay: Antibacterial activity (MIC/MBC); format: cell-based, Streptococcus pneumoniae; details: Streptococcus pneumoniae
[7] = test system: Staphylococcus aureus MSSA CIP 4.83; assay: Antibacterial activity (MIC/MBC); format: cell-based
[8] = Stability in solution at pH 1 (HPLC purity over time); format: physicochemical; details: for Purity of the hybrid molecules (as a percentage) as a function of time (hours): pH 1, 37° C.
Procedure: The stability of the aminoquinoline-cephalosporin_hybrid molecules given as examples was determined in solution at 37° C., at physiological pH (pH 7, phosphate buffer/acetonitrile, 75/25 v/v) and at acidic pH (pH 1, 0.1 M HCl/ethanol, 70/30 v/v) by high pressure liquid chromatography coupled to a UV-visible detector (Beckman Coulter ODS C18 column, 5 μm, 4.6×250 mm; eluents: A: 0.1% TFA, B: CH3CN/H2O 90/10 0.1% TFA, gradient: from 10% to 100% of B in 30 minutes, and then 100% of B for 10 minutes, flow rate 1 mL/minutes, λ=254 nm, volume injected: 10 μL).

For `CO/N=C(\C(=O)N[C@@H]1C(=O)N2C(C(=O)O)=C(CSc3nc(=O)c(=O)[nH]n3C)CS[C@H]12)c1csc(N)n1` [Ceftriaxone, reference compound], the MBC (H. influenzae CIP 102514; read-out: MBC) was 1.56 µg/mL (≈ 2.81 µM), the MIC (H. influenzae CIP 102514; read-out: MIC) was < 0.001 µg/mL and the MBC (S. pyogenes CIP 56.41T) was 0.006 µg/mL (≈ 0.0108 µM). For the same compound, the MIC (S. pyogenes CIP 56.41T; read-out: MIC) was 0.006 µg/mL (≈ 0.0108 µM), the MBC (M. catarrhalis CIP73.21T) was 0.0015 µg/mL (≈ 0.0027 µM) and the MIC (M. catarrhalis CIP73.21T) was < 0.01 µg/mL. For the same compound, the MBC [1] was 0.006 µg/mL (≈ 0.0108 µM), the MIC [1] was 0.006 µg/mL (≈ 0.0108 µM) and the MIC [2] was 0.05 µg/mL (≈ 0.0902 µM). The MBC [3] was 50 µg/mL (≈ 90.2 µM), the MIC ([3]; read-out: MIC) was 1.56 µg/mL (≈ 2.81 µM) and the ED50 [4] was 0.09 mg/kg. For the same compound, the MBC [5] was 0.78 µg/mL (≈ 1.41 µM), the MIC ([5]; +50% human serum, read-out: MIC in the presence of human serum) was 12.5 µg/mL and the MIC ([5]; read-out: MIC) was 0.39 µg/mL (≈ 0.703 µM). For the same compound, the MIC ([5]; without serum (Table VI), read-out: MIC) was 0.78 µg/mL (≈ 1.41 µM), the MBC [6] was 0.39 µg/mL (≈ 0.703 µM) and the MIC ([6]; read-out: MIC) was 0.05 µg/mL (≈ 0.0902 µM). For the same compound, the MIC ([7]; S. aureus CIP 4.83, without serum (Table VI)) was 0.20 µg/mL (≈ 0.361 µM), the MIC ([7]; Staphylococcus aureus, S. aureus CIP 4.83, +50% human serum, read-out: MIC in the presence of human serum) was 25 µg/mL and the MBC ([7]; Staphylococcus aureus, S. aureus MSSA CIP 4.83, read-out: MBC) was > 50 µg/mL. For the same compound, the MIC ([7]; Staphylococcus aureus, S. aureus MSSA CIP 4.83, read-out: MIC) was 0.2 µg/mL (≈ 0.361 µM), the half-life ([8]; 0.1 M HCl/ethanol solution, pH 1 in solution at 37° C.) was < 2 h and the “Purity of the hybrid molecules (as a percentage) as a function of time (hours)” value ([8]; time 0 h) was 100%. The “Purity of the hybrid molecules (as a percentage) as a function of time (hours)” value ([8]; time 1 h) was 67%, the “Purity of the hybrid molecules (as a percentage) as a function of time (hours)” value ([8]; time 2 h) was 46% and the “Purity of the hybrid molecules (as a percentage) as a function of time (hours)” value ([8]; time 4 h) was 21%. The “Purity of the hybrid molecules (as a percentage) as a function of time (hours)” value ([8]; time 6 h) was 4% and the “time until practically totally degraded” value ([8]; pH 1 in solution at 37° C.) was “less than 6 hr”.

From US20070060558A1 (PALUMED S.A., priority 2004, published 2007)
